Reference: US20240209028A1, “CNP COMPOUNDS” (priority 2022, published 2024)
Starred links: 1 amine or outer side, 2 acyl side, 3 side chain; linkers in the order of their positions; H or OH if unused. Positions of bridges follow the written chain, without caps; N, C: chain ends. Residues, ends and D or L forms follow the SMILES beside them. *: point of attachment. C18 diacid = O=C(O)CCCCCCCCCCCCCCCCC(=O)*; γGlu = O=C(O)[C@H](CCC(=O)[*:2])N[*:1]; X1 = O=C(CCCCCCCCCCCCCCCCc1nnn[nH]1)*; AEEA = NCCOCCOCC(=O)O

Biological target: T1, human natriuretic peptide receptor 2 (hNPR2) (Homo sapiens, UniProt P20594)
T1 construct: expressed in transfected cells; host or cells: HEK293 (ATCC CRL-1573), clone 35, co-transfected with pGloSensor-42F
T1 sequence (P20594 23-1047): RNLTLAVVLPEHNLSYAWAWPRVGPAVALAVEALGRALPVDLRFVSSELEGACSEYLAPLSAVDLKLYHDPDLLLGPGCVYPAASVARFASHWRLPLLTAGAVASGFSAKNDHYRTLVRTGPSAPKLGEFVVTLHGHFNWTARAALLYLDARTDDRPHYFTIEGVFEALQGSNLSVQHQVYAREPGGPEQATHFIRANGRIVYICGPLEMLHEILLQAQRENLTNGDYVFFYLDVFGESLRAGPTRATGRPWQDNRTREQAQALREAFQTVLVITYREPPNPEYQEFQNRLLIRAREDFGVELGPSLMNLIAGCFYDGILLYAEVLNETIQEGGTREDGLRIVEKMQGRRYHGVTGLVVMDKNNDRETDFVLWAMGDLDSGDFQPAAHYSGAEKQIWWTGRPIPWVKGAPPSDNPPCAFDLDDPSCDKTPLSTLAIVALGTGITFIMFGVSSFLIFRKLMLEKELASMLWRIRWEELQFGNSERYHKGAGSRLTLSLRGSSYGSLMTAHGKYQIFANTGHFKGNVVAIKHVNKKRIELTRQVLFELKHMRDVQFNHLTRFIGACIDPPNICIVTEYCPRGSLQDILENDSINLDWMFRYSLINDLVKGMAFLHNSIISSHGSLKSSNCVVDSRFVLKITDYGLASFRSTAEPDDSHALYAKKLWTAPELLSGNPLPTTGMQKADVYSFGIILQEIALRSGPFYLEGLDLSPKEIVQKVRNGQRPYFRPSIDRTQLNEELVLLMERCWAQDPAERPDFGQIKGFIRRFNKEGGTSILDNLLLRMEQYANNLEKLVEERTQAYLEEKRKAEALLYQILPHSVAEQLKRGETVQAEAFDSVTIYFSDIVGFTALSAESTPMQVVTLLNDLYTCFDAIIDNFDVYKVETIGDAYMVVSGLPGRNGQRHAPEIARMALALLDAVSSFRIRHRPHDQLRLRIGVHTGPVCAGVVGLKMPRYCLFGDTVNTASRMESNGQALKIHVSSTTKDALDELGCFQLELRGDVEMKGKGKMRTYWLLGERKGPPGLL
Assay: In vitro hNPR2 activity assay (cGMP GloSensor reporter, HEK293)
Format: cell-based
Settings: potency relative to CNP22 (0065)
Outline: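 Potency is the EC50 from a four-parameter logistic fit, also expressed relative to the in-plate CNP22 control (×100), with at least two replicates. Compounds (ten concentrations, […], HSA-free diluent with 1% OVA, 0.01% Tween20) were incubated 30 min at 37 °C on HEK293 cells co-expressing hNPR2 and a GloSensor cGMP luciferase. Luminescence detected with Bright-Glo.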

Compared with CC[C@H](C)[C@@H]1NC(=O)[C@H](CCCNC(=N)N)NC(=O)[C@H](CC(=O)O)NC(=O)[C@H](CC(C)C)NC(=O)[C@@H]2CCCN2C(=O)[C@H](CC(C)C)NC(=O)CNC(=O)[C@H](Cc2ccccc2)NC(=O)[C@@H](NC(=O)CNC(=O)[C@H](CCC(N)=O)NC(=O)[C@H](CO)NC(=O)[C@H](CC(C)C)NC(=O)CNC(=O)[C@H](CCCCN)NC(=O)[C@H](CCCCN)NC(=O)[C@H](CCC(N)=O)NC(=O)[C@H](C)NC(=O)CNC(=O)[C@H](CCCCN)NC(=O)[C@H](Cc2ccc(O)cc2)NC(=O)[C@H](CCCCN)NC(=O)[C@H](CCCNC(=N)N)NC(=O)[C@H](C)NC(=O)[C@H](CCC(N)=O)NC(=O)[C@@H]2CCCN2C(=O)[C@H](Cc2c[nH]cn2)NC(=O)[C@H](CCC(=O)O)NC(=O)[C@H](CCC(N)=O)NC(=O)COCCOCCNC(=O)COCCOCCNC(=O)COCCOCCNC(=O)COCCOCCNC(=O)CC[C@H](NC(=O)CC[C@H](NC(=O)CC[C@H](NC(=O)CC[C@H](NC(=O)CC[C@H](NC(=O)CCCCCCCCCCCCCCCCC(=O)O)C(=O)O)C(=O)O)C(=O)O)C(=O)O)C(=O)O)CSSC[C@@H](C(=O)O)NC(=O)CNC(=O)[C@H](CC(C)C)NC(=O)CNC(=O)[C@H](CO)NC(=O)[C@H](CC(C)C)NC(=O)[C@H](CO)NC(=O)CNC1=O [compound 1406] ({C18 diacid-γGlu-γGlu-γGlu-γGlu-γGlu-AEEA-AEEA-AEEA-AEEA}-QEHPQARKYKGAQKKGLSQGCFGLPLDRIGSLSGLGC-OH; disulfide 21-37), CC[C@H](C)[C@@H]1NC(=O)[C@H](CCCNC(=N)N)NC(=O)[C@H](CC(=O)O)NC(=O)[C@H](CC(C)C)NC(=O)[C@@H]2CCCN2C(=O)[C@H](CC(C)C)NC(=O)CNC(=O)[C@H](Cc2ccccc2)NC(=O)[C@@H](NC(=O)CNC(=O)[C@H](CCC(N)=O)NC(=O)[C@H](CO)NC(=O)CNC(=O)CNC(=O)[C@H](CCCCN)NC(=O)[C@H](Cc2c[nH]cn2)NC(=O)[C@H](CCC(N)=O)NC(=O)[C@H](C)NC(=O)CNC(=O)[C@H](CCC(=O)O)NC(=O)[C@H](Cc2ccc(O)cc2)NC(=O)[C@H](CCCCN)NC(=O)[C@H](CCCNC(=N)N)NC(=O)[C@H](C)NC(=O)COCCOCCNC(=O)COCCOCCNC(=O)COCCOCCNC(=O)COCCOCCNC(=O)CC[C@H](NC(=O)CC[C@H](NC(=O)CCCCCCCCCCCCCCCCC(=O)O)C(=O)O)C(=O)O)CSSC[C@@H](C(=O)O)NC(=O)CNC(=O)[C@H](CC(C)C)NC(=O)CNC(=O)[C@H](CO)NC(=O)[C@H](CC(C)C)NC(=O)[C@H](CO)NC(=O)CNC1=O [compound 1432] ({C18 diacid-γGlu-γGlu-AEEA-AEEA-AEEA-AEEA}-ARKYEGAQHKGGSQGCFGLPLDRIGSLSGLGC-OH; disulfide 16-32) is lower in “hNPR2 0% HSA. [EC50% rel CNP]” value: 59.1% for the first, 26.0% for the second.

Compared with CC[C@H](C)[C@@H]1NC(=O)[C@H](CCCNC(=N)N)NC(=O)[C@H](CC(=O)O)NC(=O)[C@H](CC(C)C)NC(=O)[C@@H]2CCCN2C(=O)[C@H](CC(C)C)NC(=O)CNC(=O)[C@H](Cc2ccccc2)NC(=O)[C@@H](NC(=O)CNC(=O)[C@H](CCCCN)NC(=O)[C@H](CO)NC(=O)[C@@H](NC(=O)CNC(=O)[C@@H](NC(=O)[C@H](Cc2c[nH]cn2)NC(=O)[C@H](CCC(N)=O)NC(=O)[C@H](C)NC(=O)CNC(=O)[C@H](Cc2c[nH]cn2)NC(=O)[C@H](Cc2ccc(O)cc2)NC(=O)[C@H](CCCCN)NC(=O)[C@H](CCCNC(=N)N)NC(=O)[C@H](C)NC(=O)COCCOCCNC(=O)COCCOCCNC(=O)CC[C@H](NC(=O)CC[C@H](NC(=O)CC[C@H](NC(=O)CCCCCCCCCCCCCCCCC(=O)O)C(=O)O)C(=O)O)C(=O)O)[C@@H](C)O)C(C)C)CSSC[C@@H](C(=O)O)NC(=O)CNC(=O)[C@H](CC(C)C)NC(=O)CNC(=O)[C@H](CO)NC(=O)[C@H](CC(C)C)NC(=O)[C@H](CO)NC(=O)CNC1=O [compound 1420] ({C18 diacid-γGlu-γGlu-γGlu-AEEA-AEEA}-ARKYHGAQHTGVSKGCFGLPLDRIGSLSGLGC-OH; disulfide 16-32), CC[C@H](C)[C@@H]1NC(=O)[C@H](CCCNC(=N)N)NC(=O)[C@H](CC(=O)O)NC(=O)[C@H](CC(C)C)NC(=O)[C@@H]2CCCN2C(=O)[C@H](CC(C)C)NC(=O)CNC(=O)[C@H](Cc2ccccc2)NC(=O)[C@@H](NC(=O)CNC(=O)[C@H](CO)NC(=O)[C@H](CO)NC(=O)[C@@H](NC(=O)CNC(=O)[C@H](CCCCN)NC(=O)[C@H](CCCCN)NC(=O)[C@H](CCC(N)=O)NC(=O)[C@H](C)NC(=O)CNC(=O)[C@H](Cc2c[nH]cn2)NC(=O)[C@H](Cc2ccc(O)cc2)NC(=O)[C@H](CCCCN)NC(=O)[C@H](CCCNC(=N)N)NC(=O)[C@H](C)NC(=O)COCCOCCNC(=O)COCCOCCNC(=O)CC[C@H](NC(=O)CC[C@H](NC(=O)CC[C@H](NC(=O)CCCCCCCCCCCCCCCCC(=O)O)C(=O)O)C(=O)O)C(=O)O)C(C)C)CSSC[C@@H](C(=O)O)NC(=O)CNC(=O)[C@H](CC(C)C)NC(=O)CNC(=O)[C@H](CO)NC(=O)[C@H](CC(C)C)NC(=O)[C@H](CO)NC(=O)CNC1=O [compound 1422] ({C18 diacid-γGlu-γGlu-γGlu-AEEA-AEEA}-ARKYHGAQKKGVSSGCFGLPLDRIGSLSGLGC-OH; disulfide 16-32) is lower in “hNPR2 0% HSA. [EC50% rel CNP]” value: 87.5% for the first, 75.3% for the second.

First: CC[C@H](C)[C@@H]1NC(=O)[C@H](CCCNC(=N)N)NC(=O)[C@H](CC(=O)O)NC(=O)[C@H](CC(C)C)NC(=O)[C@@H]2CCCN2C(=O)[C@H](CC(C)C)NC(=O)CNC(=O)[C@H](Cc2ccccc2)NC(=O)[C@@H](NC(=O)CNC(=O)[C@H](CCC(N)=O)NC(=O)[C@H](CO)NC(=O)[C@H](CC(C)C)NC(=O)CNC(=O)[C@H](CO)NC(=O)[C@H](CCCCN)NC(=O)[C@H](CCC(N)=O)NC(=O)[C@H](C)NC(=O)CNC(=O)[C@H](Cc2c[nH]cn2)NC(=O)[C@H](Cc2ccc(O)cc2)NC(=O)[C@H](CCCCN)NC(=O)[C@H](CCCNC(=N)N)NC(=O)[C@H](C)NC(=O)COCCOCCNC(=O)COCCOCCNC(=O)CC[C@H](NC(=O)CC[C@H](NC(=O)CCCCCCCCCCCCCCCCc2nnn[nH]2)C(=O)O)C(=O)O)CSSC[C@@H](C(=O)O)NC(=O)CNC(=O)[C@H](CC(C)C)NC(=O)CNC(=O)[C@H](CO)NC(=O)[C@H](CC(C)C)NC(=O)[C@H](CO)NC(=O)CNC1=O [compound 1426] ({X1-γGlu-γGlu-AEEA-AEEA}-ARKYHGAQKSGLSQGCFGLPLDRIGSLSGLGC-OH; disulfide 16-32)
Second: CC[C@H](C)[C@@H]1NC(=O)[C@H](CCCNC(=N)N)NC(=O)[C@H](CC(=O)O)NC(=O)[C@H](CC(C)C)NC(=O)[C@@H]2CCCN2C(=O)[C@H](CC(C)C)NC(=O)CNC(=O)[C@H](Cc2ccccc2)NC(=O)[C@@H](NC(=O)CNC(=O)[C@H](CCC(N)=O)NC(=O)[C@H](CO)NC(=O)CNC(=O)CNC(=O)[C@H](CCCCN)NC(=O)[C@H](CCCCN)NC(=O)[C@H](CCC(N)=O)NC(=O)[C@H](C)NC(=O)CNC(=O)[C@H](Cc2c[nH]cn2)NC(=O)[C@H](Cc2ccc(O)cc2)NC(=O)COCCOCCNC(=O)COCCOCCNC(=O)COCCOCCNC(=O)COCCOCCNC(=O)CC[C@H](NC(=O)CC[C@H](NC(=O)CCCCCCCCCCCCCCCCC(=O)O)C(=O)O)C(=O)O)CSSC[C@@H](C(=O)O)NC(=O)CNC(=O)[C@H](CC(C)C)NC(=O)CNC(=O)[C@H](CO)NC(=O)[C@H](CC(C)C)NC(=O)[C@H](CO)NC(=O)CNC1=O [compound 1434] ({C18 diacid-γGlu-γGlu-AEEA-AEEA-AEEA-AEEA}-YHGAQKKGGSQGCFGLPLDRIGSLSGLGC-OH; disulfide 13-29)
The “hNPR2 0% HSA. [EC50% rel CNP]” value of the first is higher: 76.2% for the first, 29.0% for the second.
